Assay results as given in the NIST ThermoML archive (doi:10.1016/j.tca.2017.12.013).

Assay: molar heat capacity at constant pressure
Conditions: 101.33 kPa, DSC

[Ag+].[Ag+].[S-2] [silver sulfide]
Conditions	molar heat capacity at constant pressure [J/K/mol]
617.82 K, Crystal 2	86.15
618.82 K, Crystal 2	86.13
619.82 K, Crystal 2	86.1
620.82 K, Crystal 2	86.08
621.82 K, Crystal 2	86.05
622.82 K, Crystal 2	86.03
623.82 K, Crystal 2	86.01
624.82 K, Crystal 2	85.99
625.82 K, Crystal 2	85.96
626.82 K, Crystal 2	85.94
627.82 K, Crystal 2	85.92
628.82 K, Crystal 2	85.9
629.82 K, Crystal 2	85.88
630.82 K, Crystal 2	85.86
631.82 K, Crystal 2	85.84
632.82 K, Crystal 2	85.82
633.82 K, Crystal 2	85.8
634.82 K, Crystal 2	85.78
635.82 K, Crystal 2	85.76
636.82 K, Crystal 2	85.74
637.82 K, Crystal 2	85.73
638.82 K, Crystal 2	85.71
639.82 K, Crystal 2	85.7
640.82 K, Crystal 2	85.7
641.82 K, Crystal 2	85.69
642.82 K, Crystal 2	85.67
643.82 K, Crystal 2	85.66
644.82 K, Crystal 2	85.65
645.82 K, Crystal 2	85.64
646.82 K, Crystal 2	85.62
647.82 K, Crystal 2	85.62
648.82 K, Crystal 2	85.61
649.82 K, Crystal 2	85.6
650.82 K, Crystal 2	85.59
651.82 K, Crystal 2	85.57
652.82 K, Crystal 2	85.57
653.82 K, Crystal 2	85.57
654.82 K, Crystal 2	85.57
655.82 K, Crystal 2	85.56
656.82 K, Crystal 2	85.56
657.82 K, Crystal 2	85.56
658.82 K, Crystal 2	85.56
659.82 K, Crystal 2	85.57
660.82 K, Crystal 2	85.56
661.82 K, Crystal 2	85.56
662.82 K, Crystal 2	85.57
663.82 K, Crystal 2	85.57
664.82 K, Crystal 2	85.57
665.82 K, Crystal 2	85.57
666.82 K, Crystal 2	85.57
667.82 K, Crystal 2	85.57
668.82 K, Crystal 2	85.57
669.82 K, Crystal 2	85.58
670.82 K, Crystal 2	85.59
671.82 K, Crystal 2	85.6
672.82 K, Crystal 2	85.61
673.82 K, Crystal 2	85.62
674.82 K, Crystal 2	85.63
675.82 K, Crystal 2	85.64
676.82 K, Crystal 2	85.66
677.82 K, Crystal 2	85.67
678.82 K, Crystal 2	85.69
679.82 K, Crystal 2	85.7
680.82 K, Crystal 2	85.72
681.82 K, Crystal 2	85.74
682.82 K, Crystal 2	85.75
683.82 K, Crystal 2	85.77
684.82 K, Crystal 2	85.79
685.82 K, Crystal 2	85.81
686.82 K, Crystal 2	85.83
687.82 K, Crystal 2	85.85
688.82 K, Crystal 2	85.87
689.82 K, Crystal 2	85.89
690.82 K, Crystal 2	85.92
691.82 K, Crystal 2	85.94
692.82 K, Crystal 2	85.96
693.82 K, Crystal 2	85.99
694.82 K, Crystal 2	86.01
695.82 K, Crystal 2	86.04
696.82 K, Crystal 2	86.06
697.82 K, Crystal 2	86.09
698.82 K, Crystal 2	86.12
699.82 K, Crystal 2	86.14
700.82 K, Crystal 2	86.04
701.82 K, Crystal 2	86.05
702.82 K, Crystal 2	86.06
703.82 K, Crystal 2	86.07
704.82 K, Crystal 2	86.08
705.82 K, Crystal 2	86.09
706.82 K, Crystal 2	86.1
707.82 K, Crystal 2	86.11
708.82 K, Crystal 2	86.12
709.82 K, Crystal 2	86.13
710.82 K, Crystal 2	86.14
711.82 K, Crystal 2	86.15
712.82 K, Crystal 2	86.16
713.82 K, Crystal 2	86.17
714.82 K, Crystal 2	86.18
715.82 K, Crystal 2	86.19
716.82 K, Crystal 2	86.2
717.82 K, Crystal 2	86.21
718.82 K, Crystal 2	86.22
719.82 K, Crystal 2	86.23
720.82 K, Crystal 2	86.24
721.82 K, Crystal 2	86.25
722.82 K, Crystal 2	86.26
723.82 K, Crystal 2	86.26
724.82 K, Crystal 2	86.27
725.82 K, Crystal 2	86.28
726.82 K, Crystal 2	86.29
727.82 K, Crystal 2	86.3
728.82 K, Crystal 2	86.3
729.82 K, Crystal 2	86.31
730.82 K, Crystal 2	86.32
731.82 K, Crystal 2	86.32
732.82 K, Crystal 2	86.33
733.82 K, Crystal 2	86.33
734.82 K, Crystal 2	86.34
735.82 K, Crystal 2	86.34
736.82 K, Crystal 2	86.35
737.82 K, Crystal 2	86.35
738.82 K, Crystal 2	86.35
739.82 K, Crystal 2	86.35
740.82 K, Crystal 2	86.36
741.82 K, Crystal 2	86.36
742.82 K, Crystal 2	86.36
743.82 K, Crystal 2	86.36
744.82 K, Crystal 2	86.36
745.82 K, Crystal 2	86.36
746.82 K, Crystal 2	86.35
747.82 K, Crystal 2	86.35
748.82 K, Crystal 2	86.35
749.82 K, Crystal 2	86.35
750.82 K, Crystal 2	86.34
751.82 K, Crystal 2	86.34
752.82 K, Crystal 2	86.33
753.82 K, Crystal 2	86.33
754.82 K, Crystal 2	86.32
755.82 K, Crystal 2	86.31
756.82 K, Crystal 2	86.31
757.82 K, Crystal 2	86.3
758.82 K, Crystal 2	86.29
759.82 K, Crystal 2	86.28
760.82 K, Crystal 2	86.27
761.82 K, Crystal 2	86.27
762.82 K, Crystal 2	86.26
763.82 K, Crystal 2	86.25
764.82 K, Crystal 2	86.24
765.82 K, Crystal 2	86.23
766.82 K, Crystal 2	86.21
767.82 K, Crystal 2	86.2
768.82 K, Crystal 2	86.19
769.82 K, Crystal 2	86.18
770.82 K, Crystal 2	86.17
771.82 K, Crystal 2	86.16
772.82 K, Crystal 2	86.14
773.82 K, Crystal 2	86.13
774.82 K, Crystal 2	86.12
775.82 K, Crystal 2	86.11
776.82 K, Crystal 2	86.1
777.82 K, Crystal 2	86.08
778.82 K, Crystal 2	86.07
779.82 K, Crystal 2	86.06
780.82 K, Crystal 2	86.05
781.82 K, Crystal 2	86.04
782.82 K, Crystal 2	86.02
783.82 K, Crystal 2	86.01
784.82 K, Crystal 2	86
785.82 K, Crystal 2	85.99
786.82 K, Crystal 2	85.98
787.82 K, Crystal 2	85.97
788.82 K, Crystal 2	85.96
789.82 K, Crystal 2	85.95
790.82 K, Crystal 2	85.95
791.82 K, Crystal 2	85.94
792.82 K, Crystal 2	85.93
793.82 K, Crystal 2	85.93
794.82 K, Crystal 2	85.92
795.82 K, Crystal 2	85.92
796.82 K, Crystal 2	85.91
797.82 K, Crystal 2	85.91
798.82 K, Crystal 2	85.91
799.82 K, Crystal 2	85.9
800.82 K, Crystal 2	85.91
801.82 K, Crystal 2	85.92
802.82 K, Crystal 2	85.93
803.82 K, Crystal 2	85.94
804.82 K, Crystal 2	85.95
805.82 K, Crystal 2	85.96
806.82 K, Crystal 2	85.97
807.82 K, Crystal 2	85.98
808.82 K, Crystal 2	85.99
809.82 K, Crystal 2	86
810.82 K, Crystal 2	86.01
811.82 K, Crystal 2	86.02
812.82 K, Crystal 2	86.03
813.82 K, Crystal 2	86.04
814.82 K, Crystal 2	86.05
815.82 K, Crystal 2	86.06
816.82 K, Crystal 2	86.07
817.82 K, Crystal 2	86.08
818.82 K, Crystal 2	86.09
819.82 K, Crystal 2	86.1
820.82 K, Crystal 2	86.11
821.82 K, Crystal 2	86.12
822.82 K, Crystal 2	86.13
823.82 K, Crystal 2	86.14
824.82 K, Crystal 2	86.15
825.82 K, Crystal 2	86.16
826.82 K, Crystal 2	86.17
827.82 K, Crystal 2	86.18
828.82 K, Crystal 2	86.19
829.82 K, Crystal 2	86.2
830.82 K, Crystal 2	86.21
831.82 K, Crystal 2	86.23
832.82 K, Crystal 2	86.24
833.82 K, Crystal 2	86.25
834.82 K, Crystal 2	86.26
835.82 K, Crystal 2	86.27
836.82 K, Crystal 2	86.28
837.82 K, Crystal 2	86.29
838.82 K, Crystal 2	86.3
839.82 K, Crystal 2	86.31
840.82 K, Crystal 2	86.32
841.82 K, Crystal 2	86.33
842.82 K, Crystal 2	86.34
843.82 K, Crystal 2	86.35
844.82 K, Crystal 2	86.36
845.82 K, Crystal 2	86.37
846.82 K, Crystal 2	86.38
847.82 K, Crystal 2	86.39
848.82 K, Crystal 2	86.4
849.82 K, Crystal 2	86.41
866.21 K, Crystal 1	90.42
867.21 K, Crystal 1	88.01
868.11 K, Crystal 1	89.24
869.11 K, Crystal 1	88.03
870.11 K, Crystal 1	87.13
871.11 K, Crystal 1	86.12
872.11 K, Crystal 1	85.33
873.11 K, Crystal 1	85.06
874.11 K, Crystal 1	84.83
875.11 K, Crystal 1	84.62
876.11 K, Crystal 1	84.44
877.11 K, Crystal 1	84.28
878.11 K, Crystal 1	84.13
879.11 K, Crystal 1	83.93
880.11 K, Crystal 1	83.85
881.11 K, Crystal 1	83.77
882.11 K, Crystal 1	83.69
883.11 K, Crystal 1	83.62
884.11 K, Crystal 1	83.55
885.11 K, Crystal 1	83.48
886.11 K, Crystal 1	83.41
887.11 K, Crystal 1	83.34
888.11 K, Crystal 1	83.28
889.11 K, Crystal 1	83.22
890.11 K, Crystal 1	83.17
891.11 K, Crystal 1	83.11
892.11 K, Crystal 1	83.06
893.11 K, Crystal 1	83.01
894.11 K, Crystal 1	82.97
895.11 K, Crystal 1	82.92
896.11 K, Crystal 1	82.88
897.11 K, Crystal 1	82.85
898.11 K, Crystal 1	82.81
899.11 K, Crystal 1	82.78
900.11 K, Crystal 1	82.75
901.11 K, Crystal 1	82.69
902.11 K, Crystal 1	82.64
903.11 K, Crystal 1	82.59
904.11 K, Crystal 1	82.54
905.11 K, Crystal 1	82.49
906.11 K, Crystal 1	82.45
907.11 K, Crystal 1	82.41
908.11 K, Crystal 1	82.37
909.11 K, Crystal 1	82.34
910.11 K, Crystal 1	82.3
911.11 K, Crystal 1	82.27
912.11 K, Crystal 1	82.25
913.11 K, Crystal 1	82.22
914.11 K, Crystal 1	82.2
915.11 K, Crystal 1	82.18
916.11 K, Crystal 1	82.16
917.11 K, Crystal 1	82.15
918.11 K, Crystal 1	82.14
919.11 K, Crystal 1	82.13
920.11 K, Crystal 1	82.13
921.11 K, Crystal 1	82.12
922.11 K, Crystal 1	82.12
923.11 K, Crystal 1	82.12
924.11 K, Crystal 1	82.13
925.11 K, Crystal 1	82.14
926.11 K, Crystal 1	82.15
927.11 K, Crystal 1	82.16
928.11 K, Crystal 1	82.18
929.11 K, Crystal 1	82.2
930.11 K, Crystal 1	82.22
931.11 K, Crystal 1	82.23
932.11 K, Crystal 1	82.25
933.11 K, Crystal 1	82.26
934.11 K, Crystal 1	82.27
935.11 K, Crystal 1	82.29
936.11 K, Crystal 1	82.3
937.11 K, Crystal 1	82.31
938.11 K, Crystal 1	82.32
